# Experimental data: ChEMBL document CHEMBL2390892, “Synthesis and cytotoxic activity on human cancer cells of carbamate derivatives of 4β-(1,2,3-triazol-1-yl)podophyllotoxin” (Eur J Med Chem, 2013)
# The source made the active and inactive calls. No cut-off for these calls is given here.
# Assays:
# HL-60 = experiment: Cytotoxicity against human HL60 cells assessed as growth inhibition after 48 hrs by CCK-8 assay; format: functional, cell-based; conditions: HL-60, 48 h
# HeLa = experiment: Cytotoxicity against human HeLa cells assessed as growth inhibition after 48 hrs by MTT assay; format: functional, cell-based
# A549 [1] = experiment: Cytotoxicity against human A549 cells assessed as growth inhibition after 48 hrs by MTT assay; format: functional, cell-based; conditions: A549, 48 h
# HCT-8 = experiment: Cytotoxicity against human HCT8 cells assessed as growth inhibition after 48 hrs by MTT assay; format: functional, cell-based; conditions: HCT-8, 48 h
# [2] = molecular target: DNA topoisomerase 2-alpha (Homo sapiens) (UniProt P11388); experiment: Inhibition of DNA topoisomerase-2 (unknown origin) assessed as inhibition of pBR322 DNA relaxation at 100 uM by agarose gel electrophoresis
# [3] = Solubility of the compound in water; format: physicochemical; conditions: buffer
# A549 [4] = experiment: Cell cycle arrest in human A549 cells assessed as accumulation at G2/M phase at 5 uM after 24 hrs by propidium iodide staining-based FACS flow cytometric analysis (reference value: 16.4%); format: functional
# A549 [5] = experiment: Induction of apoptosis in human A549 cells assessed as nuclear DNA fragmentation after 48 hrs by DAPI staining-based confocal microscopic analysis; format: functional, cell-based
# A549 [6] = experiment: Cell cycle arrest in human A549 cells assessed as accumulation at G2/M phase at 5 uM after 48 hrs by propidium iodide staining-based FACS flow cytometric analysis (reference value: 16.4%); format: functional
# A549 [7] = experiment: Cell cycle arrest in human A549 cells assessed as accumulation at S phase at 5 uM after 48 hrs by propidium iodide staining-based FACS flow cytometric analysis (reference value: 25.5%); format: functional
# A549 [8] = experiment: Induction of apoptosis in human A549 cells assessed as nuclear condensation after 48 hrs by DAPI staining-based confocal microscopic analysis; format: functional, cell-based
# A549 [9] = experiment: Induction of apoptosis in human A549 cells assessed as cell shrinkage after 48 hrs by confocal microscopic analysis; format: functional, cell-based
# A549 [10] = experiment: Cell cycle arrest in human A549 cells assessed as accumulation at G1 phase at 5 uM after 24 hrs by propidium iodide staining-based FACS flow cytometric analysis (reference value: 58.1%); format: functional
# A549 [11] = experiment: Cell cycle arrest in human A549 cells assessed as accumulation at sub-G1 phase at 5 uM after 48 hrs by propidium iodide staining-based FACS flow cytometric analysis (reference value: 1.5%); format: functional
# A549 [12] = experiment: Cell cycle arrest in human A549 cells assessed as accumulation at sub-G1 phase at 5 uM after 24 hrs by propidium iodide staining-based FACS flow cytometric analysis (reference value: 1.5%); format: functional
# A549 [13] = experiment: Cell cycle arrest in human A549 cells assessed as accumulation at G1 phase at 5 uM after 48 hrs by propidium iodide staining-based FACS flow cytometric analysis (reference value: 58.1%); format: functional
# A549 [14] = experiment: Induction of apoptosis in human A549 cells assessed as appearance of round, short and dense microtubule networks after 48 hrs by confocal microscopic analysis; format: functional, cell-based
# A549 [15] = experiment: Cell cycle arrest in human A549 cells assessed as accumulation at S phase at 5 uM after 24 hrs by propidium iodide staining-based FACS flow cytometric analysis (reference value: 25.5%); format: functional
# DNA topoisomerase 2-alpha (Homo sapiens), sequence (P11388 whole entry): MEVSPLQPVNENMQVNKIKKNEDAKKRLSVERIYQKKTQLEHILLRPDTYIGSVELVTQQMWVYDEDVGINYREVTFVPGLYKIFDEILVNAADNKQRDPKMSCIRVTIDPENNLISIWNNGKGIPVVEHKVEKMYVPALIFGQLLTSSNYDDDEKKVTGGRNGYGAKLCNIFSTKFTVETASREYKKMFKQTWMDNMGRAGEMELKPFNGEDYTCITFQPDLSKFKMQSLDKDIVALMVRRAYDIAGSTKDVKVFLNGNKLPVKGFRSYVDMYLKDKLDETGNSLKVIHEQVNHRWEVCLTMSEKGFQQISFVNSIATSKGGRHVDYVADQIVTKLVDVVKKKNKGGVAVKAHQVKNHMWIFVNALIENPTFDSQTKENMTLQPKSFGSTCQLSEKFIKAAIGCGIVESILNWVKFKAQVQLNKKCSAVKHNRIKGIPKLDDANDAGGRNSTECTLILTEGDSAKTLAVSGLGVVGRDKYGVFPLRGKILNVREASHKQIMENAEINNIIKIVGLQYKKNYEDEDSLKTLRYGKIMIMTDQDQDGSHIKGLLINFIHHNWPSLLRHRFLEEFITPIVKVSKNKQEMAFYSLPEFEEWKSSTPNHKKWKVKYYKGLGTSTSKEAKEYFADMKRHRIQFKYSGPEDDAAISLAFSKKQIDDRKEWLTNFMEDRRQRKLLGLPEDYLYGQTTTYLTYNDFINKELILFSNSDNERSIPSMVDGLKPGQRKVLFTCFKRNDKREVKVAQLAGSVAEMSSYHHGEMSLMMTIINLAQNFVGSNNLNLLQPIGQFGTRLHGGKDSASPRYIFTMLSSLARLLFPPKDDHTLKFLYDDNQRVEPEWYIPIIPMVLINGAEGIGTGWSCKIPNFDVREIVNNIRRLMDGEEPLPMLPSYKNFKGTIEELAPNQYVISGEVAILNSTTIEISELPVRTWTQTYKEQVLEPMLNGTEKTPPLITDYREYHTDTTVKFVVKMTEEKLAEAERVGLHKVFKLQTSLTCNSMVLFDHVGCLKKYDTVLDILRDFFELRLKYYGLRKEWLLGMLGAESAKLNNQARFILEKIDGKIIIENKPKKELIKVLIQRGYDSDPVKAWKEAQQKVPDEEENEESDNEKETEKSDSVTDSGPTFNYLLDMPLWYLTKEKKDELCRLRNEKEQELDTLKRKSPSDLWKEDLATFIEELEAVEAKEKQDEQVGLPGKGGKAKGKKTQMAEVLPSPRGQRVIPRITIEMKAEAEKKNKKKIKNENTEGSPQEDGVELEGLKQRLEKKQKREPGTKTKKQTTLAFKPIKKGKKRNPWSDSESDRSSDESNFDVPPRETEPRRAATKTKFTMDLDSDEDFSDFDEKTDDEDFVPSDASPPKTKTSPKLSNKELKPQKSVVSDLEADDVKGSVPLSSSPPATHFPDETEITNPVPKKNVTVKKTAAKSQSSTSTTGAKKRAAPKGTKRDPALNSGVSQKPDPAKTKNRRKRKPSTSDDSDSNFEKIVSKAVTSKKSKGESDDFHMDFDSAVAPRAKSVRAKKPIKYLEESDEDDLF
structure (smiles),measurement,setting,value
CCCNC(=O)OCc1cn([C@@H]2c3cc4c(cc3[C@@H](c3cc(OC)c(O)c(OC)c3)[C@H]3C(=O)OC[C@@H]32)OCO4)nn1,IC50,HL-60,183 nM
same,IC50,HeLa,6.91 µM
same,IC50,A549 [1],23 µM
same,IC50,HCT-8,16.2 µM
COc1cc([C@@H]2c3cc4c(cc3[C@@H](n3cc(CO)nn3)[C@H]3COC(=O)[C@H]23)OCO4)cc(OC)c1OC,IC50,HL-60,298 nM
same,IC50,HeLa,0.92 µM
same,IC50,A549 [1],22.1 µM
same,IC50,HCT-8,2.76 µM
COc1cc([C@@H]2c3cc4c(cc3[C@@H](O[C@@H]3O[C@@H]5CO[C@@H](C)O[C@H]5[C@H](O)[C@H]3O)[C@H]3COC(=O)[C@H]23)OCO4)cc(OC)c1O [ETOPOSIDE],IC50,HL-60,1150 nM
same,inhibition,[2],Active
same,IC50,HeLa,2.91 µM
same,IC50,A549 [1],3.2 µM
same,IC50,HCT-8,7.06 µM
COc1cc([C@@H]2c3cc4c(cc3[C@H](O)[C@H]3COC(=O)[C@H]23)OCO4)cc(OC)c1OC [PODOFILOX],solubility,[3],soluble
COc1cc([C@@H]2c3cc4c(cc3[C@@H](n3cc(COC(=O)NC5CCCC5)nn3)[C@H]3COC(=O)[C@H]23)OCO4)cc(OC)c1O,Activity,A549 [4],20.6%
same,Activity,A549 [5],Dose-dependent effect
same,Activity,A549 [6],22.2%
same,IC50,HL-60,< 10 nM
same,Activity,A549 [7],55.1%
same,Activity,A549 [8],Dose-dependent effect
same,Activity,A549 [9],Dose-dependent effect
same,Activity,A549 [10],43.1%
same,inhibition,[2],Active
same,Activity,A549 [11],26.8%
same,Activity,A549 [12],24.3%
same,Activity,A549 [13],22.7%
same,IC50,HeLa,0.51 µM
same,Activity,A549 [14],Dose-dependent effect
same,IC50,A549 [1],0.14 µM
same,Activity,A549 [15],36.3%
same,IC50,HCT-8,0.05 µM
COc1cc([C@@H]2c3cc4c(cc3[C@@H](n3cc(COC(=O)N5CCN(c6ccc([N+](=O)[O-])cc6)CC5)nn3)[C@H]3COC(=O)[C@H]23)OCO4)cc(OC)c1OC,IC50,HL-60,625 nM
same,IC50,HeLa,6.48 µM
same,IC50,A549 [1],56.6 µM
same,IC50,HCT-8,31.3 µM
COc1cc([C@@H]2c3cc4c(cc3[C@@H](n3cc(COC(=O)NC5CCCC5)nn3)[C@H]3COC(=O)[C@H]23)OCO4)cc(OC)c1OC,IC50,HL-60,375 nM
same,IC50,HeLa,1.16 µM
same,IC50,A549 [1],14.8 µM
same,IC50,HCT-8,14.9 µM
COc1cc([C@@H]2c3cc4c(cc3[C@@H](n3cc(COC(=O)N5CCN(c6ccc([N+](=O)[O-])cc6)CC5)nn3)[C@H]3COC(=O)[C@H]23)OCO4)cc(OC)c1O,IC50,HL-60,320 nM
same,solubility,[3],soluble
same,IC50,HeLa,3.5 µM
same,IC50,A549 [1],5.58 µM
same,IC50,HCT-8,6.15 µM
COc1cc([C@@H]2c3cc4c(cc3[C@@H](n3cc(COC(=O)N5CCOCC5)nn3)[C@H]3COC(=O)[C@H]23)OCO4)cc(OC)c1O,IC50,HL-60,45 nM
same,IC50,HeLa,0.03 µM
same,IC50,A549 [1],1.46 µM
same,IC50,HCT-8,0.37 µM
CCCNC(=O)OCc1cn([C@@H]2c3cc4c(cc3[C@@H](c3cc(OC)c(OC)c(OC)c3)[C@H]3C(=O)OC[C@@H]32)OCO4)nn1,IC50,HL-60,2770 nM
same,IC50,HeLa,7.42 µM
same,IC50,A549 [1],46.8 µM
same,IC50,HCT-8,6.29 µM
COc1cc([C@@H]2c3cc4c(cc3[C@@H](n3cc(COC(=O)N[C@@H](CCSC)C(=O)N5CCN(c6ccc([N+](=O)[O-])cc6)CC5)nn3)[C@H]3COC(=O)[C@H]23)OCO4)cc(OC)c1O,IC50,HL-60,15700 nM
same,solubility,[3],soluble
same,IC50,HeLa,10.3 µM
same,IC50,A549 [1],45.6 µM
same,IC50,HCT-8,40.8 µM
COc1cc([C@@H]2c3cc4c(cc3[C@@H](n3cc(COC(=O)N5CCN(c6ccc(F)cc6)CC5)nn3)[C@H]3COC(=O)[C@H]23)OCO4)cc(OC)c1OC,IC50,HL-60,< 10 nM
same,IC50,HeLa,3.84 µM
same,IC50,A549 [1],22.1 µM
same,IC50,HCT-8,1.47 µM
COc1cc([C@@H]2c3cc4c(cc3[C@@H](n3cc(COC(=O)N5CCN(C6CCCC6)CC5)nn3)[C@H]3COC(=O)[C@H]23)OCO4)cc(OC)c1OC,IC50,HL-60,< 10 nM
same,IC50,HeLa,< 0.01 µM
same,IC50,A549 [1],8.7 µM
same,IC50,HCT-8,0.35 µM
COc1cc([C@@H]2c3cc4c(cc3[C@@H](n3cc(COC(=O)N5CCOCC5)nn3)[C@H]3COC(=O)[C@H]23)OCO4)cc(OC)c1OC,IC50,HL-60,629 nM
same,IC50,HeLa,35.7 µM
same,IC50,A549 [1],23.3 µM
same,IC50,HCT-8,2.05 µM
